How the values were obtained:
[1] = tested on: Pythium ultimum; assay: Pythium ultimum / liquid culture (seedling damping off); format: cell-based; conditions: Globisporangium ultimum, liquid culture in PDB, 24° C., 2-3 days after application, read-out: control of Pythium ultimum (inhibition of growth, photometric)
Procedure: Pythium ultimum/Liquid Culture (Seedling Damping Off)
Mycelia fragments and oospores of a newly grown liquid culture of the fungus are directly mixed into nutrient broth (PDB potato dextrose broth). After placing a (DMSO) solution of test compound into a microtiter plate (96-well format), the nutrient broth containing the fungal mycelia/spore mixture is added. The test plates are incubated at 24° C. and the inhibition of growth is determined photometrically 2-3 days after application.

[2] = tested on: Phytophthora infestans; assay: whole plant or invertebrate; format: in vivo; conditions: in Solanum lycopersicum, foliar, read-out: control of Phytophthora infestans (percent disease control compared to untreated)
[3] = tested on: Plasmopara viticola; assay: whole plant or invertebrate; format: in vivo; conditions: foliar, read-out: control of Plasmopara viticola (percent disease control compared to untreated)

SMILES | inhibition at 20 ppm [1] [%] | pest or weed control at 200 ppm [2] [%] | pest or weed control at 200 ppm [3] [%]
COCCN(C(=O)c1ccc(F)c(OC)c1)c1ccc2ncc(-c3ccc(NC(=O)OC)nc3)n2c1 [Compound 14, methyl N-[5-[6-[(4-fluoro-3-methoxy-benzoyl)-(2-methoxyethyl)amino]imidazo[1,2-a]pyridin-3-yl]-2-pyridyl]carbamate] | ≥ 80 | – | –
COC(=O)Nc1ccc(-c2cnc3c(C)cc(N(C)C(=O)c4ccccc4C(=O)OC)cn23)cn1 [Compound 40] | – | ≥ 80 | –
CCOc1cc(C(=O)N(C)c2ccc3ncc(-c4ccc(NC(=O)OC)nc4)n3c2)ccc1F [Compound 23, methyl N-[5-[6-[(3-ethoxy-4-fluoro-benzoyl)-methyl-amino]imidazo[1,2-a]pyridin-3-yl]-2-pyridyl]carbamate] | ≥ 80 | ≥ 80 | –
CCOc1cc(C(=O)N(C)c2cc(C)c3ncc(-c4ccc(NC(=O)OC)nc4)n3c2)ccc1F [Compound 19, methyl N-[5-[6-[(3-ethoxy-4-fluoro-benzoyl)-methyl-amino]-8-methyl-imidazo[1,2-a]pyridin-3-yl]-2-pyridyl]carbamate] | ≥ 80 | ≥ 80 | –
COC(=O)Nc1ccc(-c2cnc3ccc(N(C)C(=O)c4ccc(F)c(F)c4)cn23)cn1 [Compound 22, methyl N-[5-[6-[(3,4-difluorobenzoyl)-methyl-amino]imidazo[1,2-a]pyridin-3-yl]-2-pyridyl]carbamate] | ≥ 80 | ≥ 80 | –
COC(=O)Nc1ccc(-c2cnc3c(C)cc(N(C)C(=O)c4ccc(F)c(C)c4)cn23)cn1 [Compound 11, methyl N-[5-[6-[(4-fluoro-3-methyl-benzoyl)-methyl-amino]-8-methyl-imidazo[1,2-a]pyridin-3-yl]-2-pyridyl]carbamate] | ≥ 80 | ≥ 80 | ≥ 80
COC(=O)Nc1ccc(-c2cnc3c(Br)cc(N(C)C(=O)c4ccc(F)c(OC)c4)cn23)cn1 [Compound 60, methyl N-[5-[8-bromo-6-[(4-fluoro-3-methoxy-benzoyl)-methyl-amino]imidazo[1,2-a]pyridin-3-yl]-2-pyridyl]carbamate] | ≥ 80 | ≥ 80 | ≥ 80
COC(=O)Nc1ccc(-c2cnc3c(C)cc(N(C)C(=O)c4ccnc(OC)c4)cn23)cn1 [Compound 3, methyl N-[5-[6-[(2-methoxypyridine-4-carbonyl)-methyl-amino]-8-methyl-imidazo[1,2-a]pyridin-3-yl]-2-pyridyl]carbamate] | ≥ 80 | ≥ 80 | –
COCN(C(=O)c1ccc(F)c(OC)c1)c1ccc2ncc(-c3ccc(NC(=O)OC)nc3)n2c1 [Compound 25, methyl N-[5-[6-[(4-fluoro-3-methoxy-benzoyl)-(methoxymethyl)amino]imidazo[1,2-a]pyridin-3-yl]-2-pyridyl]carbamate] | ≥ 80 | ≥ 80 | ≥ 80
COCN(C(=O)c1ccc(F)cc1)c1ccc2ncc(-c3ccc(NC(=O)OC)nc3)n2c1 [Compound 24, methyl N-[5-[6-[(4-fluorobenzoyl)-(methoxymethyl)amino]imidazo[1,2-a]pyridin-3-yl]-2-pyridyl]carbamate] | ≥ 80 | ≥ 80 | –
COC(=O)Nc1ccc(-c2cnc3c(C#N)cc(N(C)C(=O)c4ccc(F)c(OC)c4)cn23)cn1 [Compound 55, methyl N-[5-[8-cyano-6-[(4-fluoro-3-methoxy-benzoyl)-methyl-amino]imidazo[1,2-a]pyridin-3-yl]-2-pyridyl]carbamate] | ≥ 80 | ≥ 80 | ≥ 80
COC(=O)Nc1ccc(-c2cnc3ccc(N(C)C(=O)c4ccc(F)c(C)c4)cn23)cn1 [Compound 21, methyl N-[5-[6-[(4-fluoro-3-methyl-benzoyl)-methyl-amino]imidazo[1,2-a]pyridin-3-yl]-2-pyridyl]carbamate] | ≥ 80 | ≥ 80 | –
C=CCCc1cc(N(C)C(=O)c2ccc(F)c(OC)c2)cn2c(-c3ccc(NC(=O)OC)nc3)cnc12 [Compound 58, methyl N-[5-[8-but-3-enyl-6-[(4-fluoro-3-methoxy-benzoyl)-methyl-amino]imidazo[1,2-a]pyridin-3-yl]-2-pyridyl]carbamate] | ≥ 80 | ≥ 80 | ≥ 80
COC(=O)Nc1ccc(-c2cnc3c(NC(C)=O)cc(N(C)C(=O)c4ccc(F)c(OC)c4)cn23)cn1 [Compound 59, methyl N-[5-[8-acetamido-6-[(4-fluoro-3-methoxy-benzoyl)-methyl-amino]imidazo[1,2-a]pyridin-3-yl]-2-pyridyl]carbamate] | ≥ 80 | ≥ 80 | –
COC(=O)Nc1ccc(-c2cnc3c(C)cc(N(C)C(=O)c4ccc(Cl)cc4)cn23)cn1 [Compound 49, methyl N-[5-[6-[(4-chlorobenzoyl)-methyl-amino]-8-methyl-imidazo[1,2-a]pyridin-3-yl]-2-pyridyl]carbamate] | ≥ 80 | ≥ 80 | ≥ 80
COC(=O)Nc1ccc(-c2cnc3ccc(N(CC#N)C(=O)c4ccc(F)c(OC)c4)cn23)cn1 [Compound 7, methyl N-[5-[6-[cyanomethyl-(4-fluoro-3-methoxy-benzoyl)amino]imidazo[1,2-a]pyridin-3-yl]-2-pyridyl]carbamate] | ≥ 80 | – | –
CCOc1cc(C(=O)N(C)c2cc(C)c3ncc(-c4ccc(NC(=O)OC)nc4)n3c2)ccc1C#N [Compound 10, methyl N-[5-[6-[(4-cyano-3-ethoxy-benzoyl)-methyl-amino]-8-methyl-imidazo[1,2-a]pyridin-3-yl]-2-pyridyl]carbamate] | ≥ 80 | ≥ 80 | ≥ 80
COC(=O)Nc1ccc(-c2cnc3c(C)cc(N(C)C(=O)c4cccnc4SC)cn23)cn1 [Compound 46, methyl N-[5-[8-methyl-6-[methyl-(2-methylsulfanylpyridine-3-carbonyl)amino]imidazo[1,2-a]pyridin-3-yl]-2-pyridyl]carbamate] | – | ≥ 80 | –
COC(=O)Nc1ccc(-c2cnc3c(C)cc(N(C)C(=O)c4ccc(C#N)c(C)c4)cn23)cn1 [Compound 2, methyl N-[5-[6-[(4-cyano-3-methyl-benzoyl)-methyl-amino]-8-methyl-imidazo[1,2-a]pyridin-3-yl]-2-pyridyl]carbamate] | ≥ 80 | – | –
COC(=O)Nc1ccc(-c2cnc3c(C)cc(N(C)C(=O)c4cnc(F)c(C)c4)cn23)cn1 [Compound 43, methyl N-[5-[6-[(6-fluoro-5-methyl-pyridine-3-carbonyl)-methyl-amino]-8-methyl-imidazo[1,2-a]pyridin-3-yl]-2-pyridyl]carbamate] | ≥ 80 | ≥ 80 | –
COC(=O)Nc1ccc(-c2cnc3ccc(N(C)C(=O)c4ccc(C#N)c(C)c4)cn23)cn1 [Compound 17, methyl N-[5-[6-[(4-cyano-3-methyl-benzoyl)-methyl-amino]imidazo[1,2-a]pyridin-3-yl]-2-pyridyl]carbamate] | ≥ 80 | – | –
COC(=O)Nc1ccc(-c2cnc3c(C)cc(N(C)C(=O)c4ccc(C#N)nc4)cn23)cn1 [Compound 51, methyl N-[5-[6-[(6-cyanopyridine-3-carbonyl)-methyl-amino]-8-methyl-imidazo[1,2-a]pyridin-3-yl]-2-pyridyl]carbamate] | – | ≥ 80 | –
COC(=O)Nc1ccc(-c2cnc3c(C)cc(N(C)C(=O)c4ccc(C#N)c(F)c4)cn23)cn1 [Compound 4, methyl N-[5-[6-[(4-cyano-3-fluoro-benzoyl)-methyl-amino]-8-methyl-imidazo[1,2-a]pyridin-3-yl]-2-pyridyl]carbamate] | ≥ 80 | – | –
COC(=O)Nc1ccc(-c2cnc3ccc(N(CC#N)C(=O)c4ccc(F)cc4)cn23)cn1 [Compound 6, methyl N-[5-[6-[cyanomethyl-(4-fluorobenzoyl)amino]imidazo[1,2-a]pyridin-3-yl]-2-pyridyl]carbamate] | ≥ 80 | – | –
COC(=O)Nc1ccc(-c2cnc3ccc(N(C)C(=O)c4ccc(Cl)cc4)cn23)cc1 [Compound 27, methyl N-[4-[6-[(4-chlorobenzoyl)-methyl-amino]imidazo[1,2-a]pyridin-3-yl]phenyl]carbamate] | ≥ 80 | – | ≥ 80
COC(=O)Nc1ccc(-c2cnc3c(C)cc(N(C)C(=O)c4cccc(OC)n4)cn23)cn1 [Compound 37, methyl N-[5-[6-[(6-methoxypyridine-2-carbonyl)-methyl-amino]-8-methyl-imidazo[1,2-a]pyridin-3-yl]-2-pyridyl]carbamate] | – | ≥ 80 | –
COC(=O)Nc1ccc(-c2cnc3ccc(N(C)C(=O)c4ccc(C#N)c(F)c4)cn23)cn1 [Compound 15, methyl N-[5-[6-[(4-cyano-3-fluoro-benzoyl)-methyl-amino]imidazo[1,2-a]pyridin-3-yl]-2-pyridyl]carbamate] | ≥ 80 | – | –
COC(=O)Nc1ccc(-c2cnc3ccc(N(CCC#N)C(=O)c4ccc(F)c(OC)c4)cn23)cn1 [Compound 62, methyl N-[5-[6-[2-cyanoethyl-(4-fluoro-3-methoxy-benzoyl)amino]imidazo[1,2-a]pyridin-3-yl]-2-pyridyl]carbamate] | ≥ 80 | ≥ 80 | –

Reference: US20260258038A1 (priority 2023, published 2026)
